Read-outs that look alike come from different tables or passages of the source.
What was measured:
[1] = cited from earlier work
[2] = system: leafspot infestation; conditions: cited from earlier work; for Def (0.42) defoliation: 0.42 kg chlorothalonil per ha; for Def (0.84) defoliation: 0.84 kg chlorothalonil per ha; for Def (1.26) defoliation: 1.26 kg chlorothalonil per ha
[3] = cited from earlier work; remark: listed apart in the source
[4] = Particle size (Sedigraph 5100T) of chlorothalonil milled with 0.4–0.5 mm zirconium silicate; format: physicochemical
[5] = Particle size (Sedigraph 5100T) of chlorothalonil milled with 0.5–0.6 mm cerium-doped zirconium oxide; format: physicochemical
Experimental: The laboratory-sized vertical mill was provided by CB Mills, model# L-3-J. The mill has a 2 liter capacity and is jacketed for cooling. Unless otherwise specified, ambient water was cycled through the mill cooling jacket during operation. The internal dimensions are 3.9″ diameter by 9.1″ height. The mill uses a standard 3×3″ disk agitator (mild steel) on a stainless steel shaft, and it operates at 2,620 rpm.
The media used in this Example was 0.4–0.5 mm zirconium silicate beads supplied by CB Mills. All particle size determinations were made with a Sedigraph™ 5100T manufactured by Micromeritics, which uses x-ray detection and bases calculations of size on Stokes' Law.
The same mill and conditions were used in this experiment as in experiment 1. However, the grinding media was 0.5–0.6 mm cerium-doped zirconium oxide beads obtained from CB Mills. The density of the cerium doped zirconium oxide is ˜6.0 g/cm^3. […] The total batch weight was about 600 g.

[6] = 0.1 cm zirconium beads, 3000 rpm, 10 minutes, US 2004/0024099
[7] = milling time 0 mins, 0.4–0.5 mm zirconium silicate beads
[8] = milling time 30 mins, 0.4–0.5 mm zirconium silicate beads
[9] = milling time 60 mins, 0.4–0.5 mm zirconium silicate beads
[10] = milling time 90 mins, 0.4–0.5 mm zirconium silicate beads
[11] = milling time 120 mins, 0.4–0.5 mm zirconium silicate beads
[12] = milling time 150 mins, 0.4–0.5 mm zirconium silicate beads
[13] = milling time 180 mins, 0.4–0.5 mm zirconium silicate beads
[14] = milling time 270 mins, 0.4–0.5 mm zirconium silicate beads
[15] = milling time 450 mins, 0.4–0.5 mm zirconium silicate beads
[16] = milling time 0 mins, 0.5–0.6 mm cerium-doped zirconium oxide beads
[17] = milling time 90 mins, 0.5–0.6 mm cerium-doped zirconium oxide beads
[18] = milling time 240 mins, 0.5–0.6 mm cerium-doped zirconium oxide beads
[19] = 0.1 cm zirconia, 70% to 80% loading, 10 minutes, US 2004/0063847, 2003/0040569

N#Cc1c(Cl)c(Cl)c(Cl)c(C#N)c1Cl [Air, chlorothalonil]
<1μ, % (percentage of particles with a diameter less than 1 micron) ([1]; 1974 data, air milled): 7%
med. μ (median diameter in microns) ([1]; 1974 data, air milled): 3.3 microns
<1μ, % (percentage of particles with a diameter less than 1 micron) ([1]; 1975 data, air milled): 5%
med. μ (median diameter in microns) ([1]; 1975 data, air milled): 3.3 microns
Def (0.42) defoliation ([2]; 1974 data, air milled): 39
Def (0.84) defoliation ([2]; 1974 data, air milled): 25
Def (1.26) defoliation ([2]; 1974 data, air milled): 19
Def (0.42) defoliation ([2]; 1975 data, air milled): 35
Def (0.84) defoliation ([2]; 1975 data, air milled): 34
Def (1.26) defoliation ([2]; 1975 data, air milled): 27

N#Cc1c(Cl)c(Cl)c(Cl)c(C#N)c1Cl [Wet, chlorothalonil]
<1μ, % (percentage of particles with a diameter less than 1 micron) ([1]; 1974 data, wet milled 3 hr): 8%
med. μ (median diameter in microns) ([1]; 1974 data, wet milled 3 hr): 3.8 microns
<1μ, % (percentage of particles with a diameter less than 1 micron) ([1]; 1974 data, wet milled 9 hr): 22%
med. μ (median diameter in microns) ([1]; 1974 data, wet milled 9 hr): 1.75 microns
<1μ, % (percentage of particles with a diameter less than 1 micron) ([1]; 1974 data, wet milled 13 hr): 24%
med. μ (median diameter in microns) ([1]; 1974 data, wet milled 13 hr): 1.6 microns
<1μ, % (percentage of particles with a diameter less than 1 micron) ([1]; 1975 data, wet milled 3 hr): 10%
med. μ (median diameter in microns) ([1]; 1975 data, wet milled 3 hr): 3.7 microns
<1μ, % (percentage of particles with a diameter less than 1 micron) ([1]; 1975 data, wet milled >9 hr): 22%
med. μ (median diameter in microns) ([1]; 1975 data, wet milled >9 hr): 1.6 microns
Def (0.42) defoliation ([2]; 1974 data, wet milled 3 hr): 33
Def (0.84) defoliation ([2]; 1974 data, wet milled 3 hr): 24
Def (1.26) defoliation ([2]; 1974 data, wet milled 3 hr): 15.5
Def (0.42) defoliation ([2]; 1974 data, wet milled 9 hr): 32
Def (0.84) defoliation ([2]; 1974 data, wet milled 9 hr): 17.2
Def (1.26) defoliation ([2]; 1974 data, wet milled 9 hr): 14.1
Def (0.42) defoliation ([2]; 1974 data, wet milled 13 hr): 27
Def (0.84) defoliation ([2]; 1974 data, wet milled 13 hr): 23
Def (1.26) defoliation ([2]; 1974 data, wet milled 13 hr): 15.4
Def (0.42) defoliation ([2]; 1975 data, wet milled 3 hr): 35
Def (0.84) defoliation ([2]; 1975 data, wet milled 3 hr): 28
Def (1.26) defoliation ([2]; 1975 data, wet milled 3 hr): 28
Def (0.42) defoliation ([2]; 1975 data, wet milled >9 hr): 32
Def (0.84) defoliation ([2]; 1975 data, wet milled >9 hr): 29
Def (1.26) defoliation ([2]; 1975 data, wet milled >9 hr): 29

N#Cc1c(Cl)c(Cl)c(Cl)c(C#N)c1Cl [chlorothalonil, 2,4,5,6-tetrachloro-1,3-dicyanobenzene]
mean volume diameter (d50) [3, 6]: less than 3 microns
size that 90% of the number of particles are below [3, 6]: below 0.5 microns
average particle size of the product ([3]; 40% chlorothalonil, 5.6% zinc oxide formulation, wet mill or high speed media mill, U.S. Pat. No. 5,667,795): 3 microns
average particle size diameter ([3]; milled with 2 mm glass beads, U.S. Pat. No. 5,360,783 Test 5): 2.3 microns
d90 ([4]; at 60 minutes, 0.4–0.5 mm zirconium silicate media): about 2 microns
starting particle size ([4]; before wet milling): 3–4 microns
Volume % With Diameter Greater Than 2 μm [4, 7]: 95 Volume %
Volume % With Diameter Greater Than 5 μm [4, 7]: 48 Volume %
Volume % With Diameter Greater Than 10 μm [4, 7]: 10 Volume %
d50 [4, 7]: 4.9 μm
Volume % With Diameter Greater Than 1 μm [4, 8]: 68 Volume %
Volume % With Diameter Greater Than 2 μm [4, 8]: 21 Volume %
Volume % With Diameter Greater Than 5 μm [4, 8]: 4 Volume %
Volume % With Diameter Greater Than 10 μm [4, 8]: 0 Volume %
d50 [4, 8]: 1.3 μm
Volume % With Diameter Greater Than 1 μm [4, 9]: 50 Volume %
Volume % With Diameter Greater Than 2 μm [4, 9]: 11 Volume %
Volume % With Diameter Greater Than 5 μm [4, 9]: 2 Volume %
Volume % With Diameter Greater Than 10 μm [4, 9]: 4 Volume %
d50 [4, 9]: 1.0 μm
Volume % With Diameter Greater Than 1 μm [4, 10]: 94 Volume %
Volume % With Diameter Greater Than 2 μm [4, 10]: 22 Volume %
Volume % With Diameter Greater Than 5 μm [4, 10]: 23 Volume %
Volume % With Diameter Greater Than 10 μm [4, 10]: 18 Volume %
d50 [4, 10]: 1.4 μm
Volume % With Diameter Greater Than 2 μm [4, 11]: 4 Volume %
Volume % With Diameter Greater Than 5 μm [4, 11]: 0 Volume %
Volume % With Diameter Greater Than 10 μm [4, 11]: 2 Volume %
Volume % With Diameter Greater Than 1 μm [4, 12]: 58 Volume %
Volume % With Diameter Greater Than 2 μm [4, 12]: 6 Volume %
Volume % With Diameter Greater Than 5 μm [4, 12]: 2 Volume %
Volume % With Diameter Greater Than 10 μm [4, 12]: 0 Volume %
Volume % With Diameter Greater Than 1 μm [4, 13]: 53 Volume %
Volume % With Diameter Greater Than 2 μm [4, 13]: 7 Volume %
Volume % With Diameter Greater Than 5 μm [4, 13]: 2 Volume %
Volume % With Diameter Greater Than 10 μm [4, 13]: 2 Volume %
Volume % With Diameter Greater Than 1 μm [4, 14]: 54 Volume %
Volume % With Diameter Greater Than 2 μm [4, 14]: 8 Volume %
Volume % With Diameter Greater Than 5 μm [4, 14]: 0 Volume %
Volume % With Diameter Greater Than 10 μm [4, 14]: 2 Volume %
Volume % With Diameter Greater Than 1 μm [4, 15]: 56 Volume %
Volume % With Diameter Greater Than 2 μm [4, 15]: 21 Volume %
Volume % With Diameter Greater Than 5 μm [4, 15]: 8 Volume %
Volume % With Diameter Greater Than 10 μm [4, 15]: 12 Volume %
d50 ([4]; within about one hour, 0.4–0.5 mm zirconium silicate media): ~1 micron
increase in number of particles per unit of mass over the standard products (factor) ([5]; after 90 minutes of milling (first statement)): more than 30
increase in number of particles per unit of mass over the standard products (factor) ([5]; after 90 minutes of milling (second statement)): more than 1000
Volume % With Diameter Greater Than 1 μm [5, 16]: 92 Volume %
Volume % With Diameter Greater Than 2 μm [5, 16]: 77 Volume %
Volume % With Diameter Greater Than 5 μm [5, 16]: 30 Volume %
Volume % With Diameter Greater Than 10 μm [5, 16]: 8 Volume %
Volume % With Diameter Greater Than 0.4 μm [5, 17]: 22 Volume %
Volume % With Diameter Greater Than 1 μm [5, 17]: 3 Volume %
Volume % With Diameter Greater Than 2 μm [5, 17]: 3 Volume %
Volume % With Diameter Greater Than 5 μm [5, 17]: 3 Volume %
Volume % With Diameter Greater Than 10 μm [5, 17]: 3 Volume %
d50 [5, 17]: 0.31 μm
Volume % With Diameter Greater Than 0.2 μm [5, 18]: 51 Volume %
Volume % With Diameter Greater Than 0.4 μm [5, 18]: 3 Volume %
Volume % With Diameter Greater Than 1 μm [5, 18]: 3 Volume %
Volume % With Diameter Greater Than 2 μm [5, 18]: 2 Volume %
Volume % With Diameter Greater Than 5 μm [5, 18]: 1 Volume %
Volume % With Diameter Greater Than 10 μm [5, 18]: 0 Volume %
d50 [5, 18]: 0.21 μm
d50 ([5]; obtainable in 90 minutes, 0.5 mm zirconia milling media): less than 1 micron

CC1OC(C)OC(C)OC(C)O1 (stereo not shown) [metaldehyde]
diameter that 90% of the particles are below [3, 19]: less than 2.5 microns
mean volume diameter [3, 19]: less than 1.5 microns

manganese ethylenebis(dithiocarbamate) [Maneb]
mean particle diameter ([3]; milled with 2 mm glass beads, U.S. Pat. No. 5,360,783 Example 2): 1.7–1.8 micons
